We go through 28 molecules from patent publication US11697646B2, “Triazole N-linked carbamoyl cyclohexyl acids as LPA antagonists” (BRISTOL-MYERS SQUIBB COMPANY, priority 2017, dated 2023).

The structures appear in SMILES notation.

In one assay the target is T1, human LPA1 (Homo sapiens, UniProt Q92633).
T1 construct: expressed in transfected cells; host or cells: Chinese hamster ovary (CHO) cells
T1 sequence (Q92633 whole entry): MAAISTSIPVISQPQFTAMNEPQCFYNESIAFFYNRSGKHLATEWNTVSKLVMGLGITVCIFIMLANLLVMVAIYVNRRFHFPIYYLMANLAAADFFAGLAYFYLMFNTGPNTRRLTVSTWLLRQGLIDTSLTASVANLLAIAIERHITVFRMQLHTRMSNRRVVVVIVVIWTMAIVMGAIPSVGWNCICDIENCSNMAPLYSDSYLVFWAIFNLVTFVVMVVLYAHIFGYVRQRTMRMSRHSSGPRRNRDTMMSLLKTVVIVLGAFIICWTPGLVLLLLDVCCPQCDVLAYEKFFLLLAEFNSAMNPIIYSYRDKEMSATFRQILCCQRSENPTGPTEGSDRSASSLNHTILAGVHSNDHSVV
Briefly: LPA1 functional antagonist assay (calcium flux). It is filed as cell-based. The note with it: CHO cells overexpressing human LPA1; calcium flux induced by 10 nM LPA; read-out: hLPA1 IC50. The procedure: The effectiveness of compounds of the present invention as LPA1 inhibitors can be determined in an LPA1 functional antagonist assay as follows:
The cells were then equilibrated to room temperature for 30 minutes before the assay. […] IC50 values were determined by fitting data to a 4-parameter logistic equation (GraphPad Prism, San Diego Calif.).
On to `Cc1nc(-c2nnn(C)c2CNC(=O)OCC(C)(C)C)ccc1O[C@H]1CCC[C@H](C(=O)O)C1` [Example 22, (1S,3S)-3-((2-methyl-6-(1-methyl-5-((((neopentyloxy)carbonyl)amino)methyl)-1H-1,2,3-triazol-4-yl)pyridin-3-yl)oxy)cyclohexane-1-carboxylic acid], for which the IC50 was determined as 35 nM. Still for that read-out and setting: the result for `CCCCOC(=O)NCc1c(-c2ccc(O[C@H]3CCC[C@H](C(=O)O)C3)c(C(F)(F)F)n2)nnn1C` [Example 94, (1S,3S)-3-((6-(5-(((butoxycarbonyl)amino)methyl)-1-methyl-1H-1,2,3-triazol-4-yl)-2-(trifluoromethyl)pyridin-3-yl)oxy)cyclohexane-1-carboxylic acid] reads 14 nM; that for `CCCCOC(=O)Nc1c(-c2ccc(O[C@H]3CCC[C@H](C(=O)O)C3)cn2)nnn1C` [Example 89, (1S,3S)-3-((6-(5-((butoxycarbonyl)amino)-1-methyl-1H-1,2,3-triazol-4-yl)pyridin-3-yl)oxy)cyclohexane-1-carboxylic acid], 66 nM. For `Cc1nc(-c2nnn(C)c2CNC(=O)N(C)C(C)C(C)C)ccc1O[C@H]1CCC[C@H](C(=O)O)C1` (single isomer, unassigned) [Example 125], the IC50 was determined as 1210 nM. The same measure, in the same setting: the result for `Cc1nc(-c2nnn(C)c2CNC(=O)OCC(C)C)c(F)cc1O[C@H]1CCC[C@H](C(=O)O)C1` [Example 213] reads 382 nM. With `Cc1nc(-c2nnn(C)c2NC(=O)NCc2ccccc2)ccc1O[C@H]1CCC[C@H](C(=O)O)C1` [Example 135, (1S,3S)-3-((6-(5-(3-benzylureido)-1-methyl-1H-1,2,3-triazol-4-yl)-2-methylpyridin-3-yl)oxy)cyclohexane-1-carboxylic acid], the IC50 worked out at 329 nM. The same measure, in the same setting: the result for `CC(C)COC(=O)Nc1c(-c2ccc(O[C@H]3CCC[C@H](C(=O)O)C3)cn2)nnn1C` [Example 87, (1S,3S)-3-((6-(5-((isobutoxy-carbonyl)amino)-1-methyl-1H-1,2,3-triazol-4-yl)pyridin-3-yl)oxy)cyclohexane-1-carboxylic acid] reads 219 nM. Consider `Cc1nc(-c2nnn(C)c2NC(=O)OC(C)(C)C)ccc1O[C@H]1CCC[C@H](C(=O)O)C1` [Example 64, (1S,3S)-3-((6-(5-((tert-butoxycarbonyl)amino)-1-methyl-1H-1,2,3-triazol-4-yl)-2-methylpyridin-3-yl)oxy)cyclohexane-1-carboxylicacid], for which the IC50 stood at 54 nM. `Cc1nc(-c2nnn(C)c2CN(C)C(=O)N(C)Cc2ccccc2)ccc1O[C@H]1CCC[C@H](C(=O)O)C1` [Example 115, (1S,3S)-3-((6-(5-((3-benzyl-1,3-dimethylureido)methyl)-1-methyl-1H-1,2,3-triazol-4-yl)-2-methyl-pyridin-3-yl)oxy)cyclohexane-1-carboxylic acid]: the IC50 turned out to be 166 nM. Consider `Cc1nc(-c2nnn(C)c2CCNC(=O)CCC(C)C)ccc1O[C@H]1CCC[C@H](C(=O)O)C1` [Example 240], for which the IC50 came out at 1010 nM. On to `CCCCCOC(=O)Nc1c(-c2ccc(O[C@H]3CCC[C@H](C(=O)O)C3)c(C)n2)nnn1C` [Example 71, (1S,3S)-3-((2-methyl-6-(1-methyl-5-(((pentyloxy)carbonyl)amino)-1H-1,2,3-triazol-4-yl)pyridin-3-yl)oxy)cyclohexane-1-carboxylic acid], for which the half-inhibitory concentration (IC50) was determined as 6 nM. Still for that read-out and setting: the result for `CC(C)OC(=O)Nc1c(-c2ccc(O[C@H]3CCC[C@H](C(=O)O)C3)cn2)nnn1C` [Example 220, (1S,3S)-3-((6-(5-((isopropoxy-carbonyl)amino)-1-methyl-1H-1,2,3-triazol-4-yl)pyridin-3-yl)oxy)cyclohexane-1-carboxylic acid] reads 389 nM.

Turning to `CCCCOC(=O)N(C)Cc1c(-c2ccc(O[C@H]3CCC[C@H](C(=O)O)C3)c(C)n2)nnn1C` [Example 36, (1S,3S)-3-((6-(5-(((butoxycarbonyl)(methyl)amino)methyl)-1-methyl-1H-1,2,3-triazol-4-yl)-2-methyl-pyridin-3-yl)oxy)cyclohexane carboxylic acid], the 50% inhibitory concentration (IC50) amounted to 19 nM.

Consider `CC(C)CCOC(=O)NCc1c(-c2ccc(O[C@@H]3CCC[C@@H](C(=O)O)C3)cc2)nnn1C` (racemic) [Example 4, (±)-(trans)-3-(4-(5-((((isopentyloxy)carbonyl)amino)methyl)-1-methyl-1H-1,2,3-triazol-4-yl)phenoxy)cyclohexane-1-carboxylic acid], for which the IC50 turned out to be 148 nM. On to `CCCOC(=O)NCc1c(-c2ccc(O[C@H]3CCC[C@H](C(=O)O)C3)c(CC)n2)nnn1C` [Example 42, (1S,3S)-3-((2-ethyl-6-(1-methyl-5-(((propoxycarbonyl)amino)methyl)-1H-1,2,3-triazol-4-yl)pyridin-3-yl)oxy)cyclohexane-1-carboxylic acid], for which the IC50 came to 788 nM. Turning to `Cc1nc(-c2nnn(C)c2CCNC(=O)OCc2ccccc2)ccc1O[C@H]1CCC[C@H](C(=O)O)C1` [Example 106, (1S,3S)-3-((6-(5-(2-(((benzyloxy)carbonyl)amino)ethyl)-1-methyl-1H-1,2,3-triazol-4-yl)-2-methylpyridin-3-yl)oxy)cyclohexane-1-carboxylic acid], the half-maximal inhibitory concentration (IC50) is 525 nM. As for `CCCC1(COC(=O)NCc2c(-c3ccc(O[C@H]4CCC[C@H](C(=O)O)C4)c(C)n3)nnn2C)CCC1` [Example 54], the half-maximal inhibitory concentration (IC50) amounted to 58 nM. In the case of `CCC(NC(=O)NCc1c(-c2ccc(O[C@H]3CCC[C@H](C(=O)O)C3)c(C)n2)nnn1C)c1ccccc1` (mixture of isomers) [Example 120, (1S,3S)-3-((2-methyl-6-(1-methyl-5-((3-(1-phenylpropyl)ureido)methyl)-1H-1,2,3-triazol-4-yl)pyridin-3-yl)oxy)cyclo-hexane-1-carboxylic acid], the half-maximal inhibitory concentration (IC50) was 238 nM. For the molecule `CCCCN(C)S(=O)(=O)N(C)Cc1c(-c2ccc(O[C@H]3CCC[C@H](C(=O)O)C3)c(C)n2)nnn1C` [Example 229, (1S,3S)-3-((6-(5-(((N-butyl-N-methyl-sulfamoyl)(methyl)amino)methyl)-1-methyl-1H-1,2,3-triazol-4-yl)-2-methylpyridin-3-yl)oxy)cyclohexane-1-carboxylic acid], the IC50 came to 110 nM. For the molecule `Cc1nc(-c2nnn(C)c2CNC(=O)NC(CF)c2ccccc2)ccc1O[C@H]1CCC[C@H](C(=O)O)C1` (mixture of isomers) [Example 121, (1S,3S)-3-((6-(5-((3-(2-fluoro-1-phenyl-ethyl)ureido)methyl)-1-methyl-1H-1,2,3-triazol-4-yl)-2-methylpyridin-3-yl)oxy)cyclohexane-1-carboxylic acid], the half-inhibitory concentration (IC50) came out at 555 nM. As to `Cc1nc(-c2nnn(C)c2CNC(=O)OCc2cc(F)ccc2F)ccc1O[C@H]1CCC[C@H](C(=O)O)C1` [Example 17, (1S,3S)-3-((6-(5-(((((2,5-difluorobenzyl)oxy)carbonyl)amino)methyl)-1-methyl-1H-1,2,3-triazol-4-yl)-2-methylpyridin-3-yl)oxy)cyclohexane-1-carboxylic acid], the IC50 was 7 nM. In the case of `CCCCOC(=O)NCc1c(-c2ccc(O[C@H]3CCC[C@H](C(=O)O)C3)c(C)n2)nnn1C` [Example 3, (1S,3S)-3-((6-(5-(((butoxycarbonyl)amino)methyl)-1-methyl-1H-1,2,3-triazol-4-yl)-2-methylpyridin-3-yl)oxy)cyclohexane-1-carboxylic acid], the IC50 is 14 nM.

The same assay, now with this note: human LPA1 functional antagonist assay; read-out: hLPA1 IC50.
With `CCC[C@@H](C)OC(=O)NCc1c(-c2ccc(O[C@H]3CCC[C@H](C(=O)O)C3)c(C)n2)nnn1C` [Example 171, (1S,3S)-3-((2-methyl-6-(1-methyl-5-((((((R)-pentan-2-yl)oxy)carbonyl)amino)methyl)-1H-1,2,3-triazol-4-yl)pyridin-3-yl)oxy)cyclohexane-1-carboxylic acid], the concentration for half-maximal inhibition (IC50) was 76 nM.

As for `Cc1nc(-c2nnn(C)c2CNC(=O)O[C@@H](C)C(F)(F)F)ccc1O[C@H]1CCC[C@H](C(=O)O)C1` [Example 174, (1S,3S)-3-((2-methyl-6-(1-methyl-5-((((((S)-1,1,1-trifluoropropan-2-yl)oxy)carbonyl)amino)methyl)-1H-1,2,3-triazol-4-yl)pyridin-3-yl)oxy)cyclohexane-1-carboxylic acid], the concentration for half-maximal inhibition (IC50) was 101 nM.

Consider `Cc1nc(-c2nnn(C)c2CNC(=O)O[C@@H](C)C2CC2)ccc1O[C@H]1CCC[C@H](C(=O)O)C1` [Example 176, (1S,3S)-3-((6-(5-(((((S)-1-cyclo-propylethoxy)carbonyl)amino)methyl)-1-methyl-1H-1,2,3-triazol-4-yl)-2-methylpyridin-3-yl)oxy)cyclo-hexane-1-carboxylic acid], for which the IC50 was 106 nM. `Cc1nc(-c2nnn(C)c2CNC(=O)OC2CC(C)(C)C2)ccc1O[C@H]1CCC[C@H](C(=O)O)C1` [Example 168, (1S,3S)-3-((6-(5-((((3,3-dimethyl-cyclobutoxy)carbonyl)amino)methyl)-1-methyl-1H-1,2,3-triazol-4-yl)-2-methylpyridin-3-yl)oxy)cyclo-hexane-1-carboxylic acid]: the IC50 was found to be 90 nM. Take `Cc1nc(-c2nnn(C)c2CNC(=O)OCC2CCC2)cnc1O[C@H]1CCC[C@H](C(=O)O)C1` [Example 156, (1S,3S)-3-((5-(5-((((cyclobutyl-methoxy)carbonyl)amino)methyl)-1-methyl-1H-1,2,3-triazol-4-yl)-3-methylpyrazin-2-yl)oxy)cyclohexane-1-carboxylic acid]: the 50% inhibitory concentration (IC50) was 213 nM. In the case of `Cc1nc(-c2nnn(C)c2CNC(=O)OCCCCF)ccc1O[C@H]1CCC[C@H](C(=O)O)C1` [Example 162, (1S,3S)-3-((6-(5-((((4-fluorobutoxy)carbonyl)amino)methyl)-1-methyl-1H-1,2,3-triazol-4-yl)-2-methyl-pyridin-3-yl)oxy)cyclohexane-1-carboxylic acid], the IC50 was determined as 60 nM.
